The structures appear in SMILES notation.

30 molecules from patent publication US20260199369A1, “COMPOUNDS FOR THE TREATMENT OF NEUROMUSCULAR DISORDERS” (NMD PHARMA A/S, priority 2022, published 2026) can be followed below.

The subject of one assay is isolated rat soleus muscles. The experiment in a line: Measurement of force in an in vitro model: recovery of contractile force of isolated rat soleus nerve-muscle preparation after tubocurarine. The settings on record: 40 min, 10 μM of test compound, tubocurarine 115 nM, after 40 mins of compound exposure, read-out: Point increase (%): percentage increase of initial force that was restored. How it is done: The current disclosure relates to compounds that inhibit CIC-1 ion channels and increase muscle excitability and thereby improve muscle function in clinical conditions where muscle activation is failing. Such conditions result in loss of contractile function of skeletal muscle, weakness and excessive fatigue. In this series of experiments the compounds were tested for their ability to restore contractile function of isolated rat muscle when the neuromuscular transmission had been compromised akin to neuromuscular disorders.
Experimentally, soleus muscles from 4-5 wk old rats were isolated with the motor nerve remaining attached. The nerve-muscle preparations were mounted in experimental setups that enabled electrical stimulation of the motor nerve. Stimulation of the motor nerve led to activation of the muscle fibres and ensuing force production that was recorded. The nerve-muscle preparations were also in these experiments incubated in the standard Krebs Ringer (see example 15) and the solution was heated to 30° C. and continuously equilibrated with a mixture of 95% O2 and 5% CO2, pH ~7.4.
After mounting the nerve-muscle preparation in the experimental setup, the contractile function of the muscle was initially assessed under the control conditions. Sub-maximal concentration of tubocurarine (115 nM), an acetylcholine receptor antagonist, was then added to the experimental bath to impose partial inhibition of the ability of the motor nerve to activate the muscle fibres. The experimental condition mimics the failing neuromuscular transmission in a range of neuromuscular disorders. After addition of tubocurarine the contractile force declined over the next 90 minutes to 10-50% of the control force. The test compound was then added to obtain the required compound concentration in the bath and the contractile force recovered was measured. To quantify the ability of the compound to restore force the percentage of the initial force that was restored was determined after 40 mins of compound exposure and the point increase is reported in Tables 3 to 7.
Turning to `Cc1ccccc1CN1CCOc2cc(Cl)c(F)c(C(=O)O)c21` [Compound A-62, 7-Chloro-6-fluoro-4-[(o-tolyl)methyl]-3,4-dihydro-2H-1,4-benzoxazine-5-carboxylic acid], the activation at 10 µM was found to be 28%.

Still in this assay, the particulars now being: 40 min, 25 μM of test compound, tubocurarine 115 nM, after 40 mins of compound exposure, read-out: Point increase (%): percentage increase of initial force that was restored.
On to `COc1c(Cl)cc2c(c1C(=O)O)OCCN2` [Compound A-14, 6-Chloro-7-methoxy-3,4-dihydro-2H-1,4-benzoxazine-8-carboxylic acid], for which the activation at 25 µM stood at 28%.

Consider `COc1c(Cl)cc2c(c1C(=O)O)OCCN2CCCc1ccco1` [Compound A-40, 6-Chloro-4-[3-(furan-2-yl)propyl]-7-methoxy-3,4-dihydro-2H-1,4-benzoxazine-8-carboxylic acid], for which the activation at 25 µM turned out to be 14%. Regarding `COc1c(Cl)cc2c(c1C(=O)O)OCCN2Cc1cccs1` [Compound A-42, 6-chloro-7-methoxy-4-[(thiophen-2-yl)methyl]-3,4-dihydro-2H-1,4-benzoxazine-8-carboxylic acid], the activation at 25 µM stood at 30%. On the same count and under the same terms, the value for `O=C(O)c1c(F)c(Cl)cc2c1OCCN2CC1CCC1` [Compound A-46, 6-Chloro-4-(cyclobutylmethyl)-7-fluoro-3,4-dihydro-2H-1,4-benzoxazine-8-carboxylic acid] was 8%; that for `COc1c(Cl)cc2c(c1C(=O)O)OCCN2CCc1cc(F)cc(F)c1` [Compound A-53, 6-Chloro-4-[2-(3,5-difluorophenyl)ethyl]-7-methoxy-3,4-dihydro-2H-1,4-benzoxazine-8-carboxylic acid] was 30%.

The same assay, now with this note: 40 min, 35 μM of test compound, tubocurarine 115 nM, after 40 mins of compound exposure, read-out: Point increase (%): percentage increase of initial force that was restored.
On to `CCCN1CCOc2cc(Cl)c(F)c(C(=O)O)c21` [Compound A-56, 7-Chloro-6-fluoro-4-propyl-3,4-dihydro-2H-1,4-benzoxazine-5-carboxylic acid], for which the activation at 35 µM worked out at 48%.

The assay is the same for the next values; noted with them: 40 min, 50 μM of test compound, tubocurarine 115 nM, after 40 mins of compound exposure, read-out: Point increase (%): percentage increase of initial force that was restored.
Take `O=C(O)c1c(F)c(Cl)cc2c1NCCO2` [Compound A-11, 7-Chloro-6-fluoro-3,4-dihydro-2H-1,4-benzoxazine-5-carboxylic acid]: the activation at 50 µM came to 23%. Same read-out and setting: the value for `CCOc1c(Cl)cc2c(c1C(=O)O)OCCCN2C` [Compound A-16, 7-chloro-8-ethoxy-5-methyl-2,3,4,5-tetrahydro-1,5-benzoxazepine-9-carboxylic acid] was 49%; that for `O=C(O)c1c(F)c(Cl)cc2c1OCCN2CC1CC1` [Compound A-20, 6-Chloro-4-(cyclopropylmethyl)-7-fluoro-3,4-dihydro-2H-1,4-benzoxazine-8-carboxylic acid] was 22%; that for `COc1c(Cl)cc2c(c1C(=O)O)OCCN2C(C)C` [Compound A-32, 6-Chloro-7-methoxy-4-(propan-2-yl)-3,4-dihydro-2H-1,4-benzoxazine-8-carboxylic acid] was 39%. Still for that read-out and setting: then `COc1c(Cl)cc2c(c1C(=O)O)OCCN2CCc1ccccc1` [Compound A-33, 6-Chloro-7-methoxy-4-(2-phenylethyl)-3,4-dihydro-2H-1,4-benzoxazine-8-carboxylic acid], with 25%; and `COCC1CN(C)c2cc(Cl)c(OC)c(C(=O)O)c2O1` (stereo not drawn) [Compound A-35, 6-Chloro-7-methoxy-2-(methoxymethyl)-4-methyl-3,4-dihydro-2H-1,4-benzoxazine-8-carboxylic acid], with 21%.

Turning to `COc1c(Cl)cc2c(c1C(=O)O)OC(C)(C)CN2C` [Compound A-37, 6-Chloro-7-methoxy-2,2,4-trimethyl-3,4-dihydro-2H-1,4-benzoxazine-8-carboxylic acid], the activation at 50 µM worked out at 51%.

Consider `COCCN1CCOc2c1cc(Cl)c(F)c2C(=O)O` [Compound A-38, 6-Chloro-7-fluoro-4-(2-methoxyethyl)-3,4-dihydro-2H-1,4-benzoxazine-8-carboxylic acid], for which the activation at 50 µM came out at 17%. Still for that read-out and setting: then `COc1c(Cl)cc2c(c1C(=O)O)OC1(CCC1)CN2C` [Compound A-39, 6-Chloro-7-methoxy-4-methyl-3,4-dihydrospiro[1,4-benzoxazine-2,1′-cyclobutane]-8-carboxylic acid], with 35%.

The assay is the same for the next values; noted with them: 40 min, 100 μM of test compound, tubocurarine 115 nM, after 40 mins of compound exposure, read-out: Point increase (%): percentage increase of initial force that was restored.
With `O=C(O)c1c(F)c(Cl)cc2c1OCCN2Cc1ccccc1` [Compound A-22, 4-Benzyl-6-chloro-7-fluoro-3,4-dihydro-2H-1,4-benzoxazine-8-carboxylic acid], the activation at 100 µM was 15%. `COc1c(Cl)cc2c(c1C(=O)O)OCCN2Cc1nccs1` [Compound A-43, 6-Chloro-7-methoxy-4-[(1,3-thiazol-2-yl)methyl]-3,4-dihydro-2H-1,4-benzoxazine-8-carboxylic acid]: the activation at 100 µM was 14%.

For the molecule `COc1c(Cl)cc2c(c1C(=O)O)OCCN2CCCc1nccs1` [Compound A-47, 6-Chloro-7-methoxy-4-[3-(1,3-thiazol-2-yl)propyl]-3,4-dihydro-2H-1,4-benzoxazine-8-carboxylic acid], the activation at 100 µM turned out to be 14%.

Still in this assay, the particulars now being: 40 min, read-out: Point increase (%): percentage increase of initial force that was restored.
As to `COc1c(Cl)cc2c(c1C(=O)O)N(C)CCO2` [Compound A-10, 7-Chloro-6-methoxy-4-methyl-3,4-dihydro-2H-1,4-benzoxazine-5-carboxylic acid], the activation at 10 µM was determined as 36%. Regarding `COc1c(Cl)cc2c(c1C(=O)O)OCCCN2C` [Compound A-12, 7-Chloro-8-methoxy-5-methyl-2,3,4,5-tetrahydro-1,5-benzoxazepine-9-carboxylic acid], the activation at 50 µM stood at 54%. On the same count and under the same terms, then `O=C(O)c1c(F)c(Cl)cc2c1OCCCN2` [Compound A-15, 7-Chloro-8-fluoro-2,3,4,5-tetrahydro-1,5-benzoxazepine-9-carboxylic acid], with 51%. On the same count and under the same terms, the value for `CC(C)Oc1c(Cl)cc2c(c1C(=O)O)OCCN2C` [Compound A-24, 6-Chloro-4-methyl-7-(propan-2-yloxy)-3,4-dihydro-2H-1,4-benzoxazine-8-carboxylic acid] was 34%. For `CSc1c(Cl)cc2c(c1C(=O)O)OCCN2C` [Compound A-26, 6-Chloro-4-methyl-7-(methylsulfanyl)-3,4-dihydro-2H-1,4-benzoxazine-8-carboxylic acid], the activation at 25 µM came to 28%. For `COc1c(C)cc2c(c1C(=O)O)OCCN2C` [Compound A-31, 7-Methoxy-4,6-dimethyl-3,4-dihydro-2H-1,4-benzoxazine-8-carboxylic acid], the activation at 50 µM turned out to be 32%.

With `O=C(O)c1c(Cl)c(Cl)cc2c1OCCN2Cc1ccccc1` [Compound A-41, 4-Benzyl-6,7-dichloro-3,4-dihydro-2H-1,4-benzoxazine-8-carboxylic acid], the activation at 100 µM came out at 28%. With `COc1c(Cl)c(F)c2c(c1C(=O)O)OCCN2C` [Compound A-44, 6-Chloro-5-fluoro-7-methoxy-4-methyl-3,4-dihydro-2H-1,4-benzoxazine-8-carboxylic acid], the activation at 25 µM worked out at 35%. As for `O=C(O)c1c(F)c(Cl)cc2c1N(Cc1ccccc1)CCO2` [Compound A-45, 4-Benzyl-7-chloro-6-fluoro-3,4-dihydro-2H-1,4-benzoxazine-5-carboxylic acid], the activation at 10 µM was 43%. As to `Cc1c(Cl)cc2c(c1C(=O)O)OCCN2C` [Compound A-48, 6-chloro-4,7-dimethyl-3,4-dihydro-2H-1,4-benzoxazine-8-carboxylic acid], the activation at 25 µM was 23%. Still for that read-out and setting: the value for `COc1c(Cl)cc2c(c1C(=O)O)OCCN2Cc1ccccc1` [Compound A-52, 4-Benzyl-6-chloro-7-methoxy-3,4-dihydro-2H-1,4-benzoxazine-8-carboxylic acid] was 14%.
